Columns and labels:
NLRP3 = target: T1, NLRP3 (Homo sapiens, UniProt Q96P20); test: IL-1β (interleukin-1β) secretion in IFN-γ-differentiated, LPS/ATP-stimulated THP-1 cells (half inhibition rate of NLRP3); format: cell-based; settings: IFN-γ 25 ng/mL, LPS 50 ng/mL, ATP 5 mM
T1 construct: endogenous in cells; host or cells: THP-1 cells (IFN-γ differentiated, LPS primed, ATP stimulated)
Method in brief: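 IFN-γ-differentiated THP-1 cells primed with LPS (final 50 ng/mL, 4 h, serum-free), then given compound for 1 h and ATP (final 5 mM) for 1 h at 37 °C. Secreted IL-1β in supernatant quantified by sandwich ELISA (mAb Mt175 capture, biotinylated mAb7P10 detection, streptavidin-HRP/TMB, 450 nm).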

hERG potassium channel = hERG potassium channel (Homo sapiens, UniProt Q12809); test: Whole-cell patch-clamp (QPatch) of hERG current in HEK293 cells stably expressing hERG; format: cell-based
Sequence of hERG potassium channel (Q12809 whole entry): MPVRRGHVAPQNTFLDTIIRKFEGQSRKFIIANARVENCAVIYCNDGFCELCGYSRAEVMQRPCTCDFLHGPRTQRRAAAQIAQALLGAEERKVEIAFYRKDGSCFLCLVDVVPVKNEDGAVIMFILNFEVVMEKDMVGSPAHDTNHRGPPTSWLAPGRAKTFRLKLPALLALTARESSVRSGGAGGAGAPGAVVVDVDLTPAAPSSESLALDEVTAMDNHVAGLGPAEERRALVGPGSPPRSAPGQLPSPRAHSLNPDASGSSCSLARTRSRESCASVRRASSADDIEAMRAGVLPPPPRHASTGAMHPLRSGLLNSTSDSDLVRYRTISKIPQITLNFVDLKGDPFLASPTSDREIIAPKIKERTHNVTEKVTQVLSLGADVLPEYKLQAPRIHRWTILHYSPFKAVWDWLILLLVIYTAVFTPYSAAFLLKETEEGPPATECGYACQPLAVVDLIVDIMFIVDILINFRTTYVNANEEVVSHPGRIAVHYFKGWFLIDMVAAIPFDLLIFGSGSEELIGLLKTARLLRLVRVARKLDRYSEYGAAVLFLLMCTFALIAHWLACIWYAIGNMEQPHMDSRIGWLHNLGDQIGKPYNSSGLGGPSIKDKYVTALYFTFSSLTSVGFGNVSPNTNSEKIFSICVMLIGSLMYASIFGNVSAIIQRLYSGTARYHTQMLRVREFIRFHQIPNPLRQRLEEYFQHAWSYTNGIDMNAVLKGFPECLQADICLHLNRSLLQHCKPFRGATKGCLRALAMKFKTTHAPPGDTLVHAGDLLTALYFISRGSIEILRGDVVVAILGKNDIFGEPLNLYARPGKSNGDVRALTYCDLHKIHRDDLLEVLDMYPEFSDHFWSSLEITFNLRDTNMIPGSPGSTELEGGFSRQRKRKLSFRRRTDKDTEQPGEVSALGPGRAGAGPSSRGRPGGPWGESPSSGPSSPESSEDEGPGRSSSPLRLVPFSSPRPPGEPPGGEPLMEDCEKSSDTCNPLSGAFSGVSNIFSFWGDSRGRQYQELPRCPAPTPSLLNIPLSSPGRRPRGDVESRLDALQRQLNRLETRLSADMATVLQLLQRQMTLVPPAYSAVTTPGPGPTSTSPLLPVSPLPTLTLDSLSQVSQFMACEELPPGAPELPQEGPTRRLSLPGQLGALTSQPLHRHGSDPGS
Experimental: In this study, a whole-cell patch-clamp technique was used to study the inhibitory effect of compounds on hERG potassium channels and to evaluate the risk of ventricular repolarization toxicity.
The HEK293 cell line stably expressing the hERG potassium channel cells was purchased from Creacell, Inc. (Cat. No. A-0320).
The HEK293 cell line that can stably express the hERG potassium channel, was cultured in DMEM medium containing 10% fetal bovine serum and 0.8 mg/mL G418 at 37° C. and 5% carbon dioxide.
Before the test, the cells were separated with TrypLET Express, centrifuged after adding medium to terminate digestion, resuspended the cell count, adjusted the cell density to 2-3×10^6 cells/mL, and then lightly mixed the cells on a room temperature equilibration shaker for 15-20 min.
Electrophysiological assays were performed using a fully automated patch-clamp QPatch 48 X (Sophion) device. The prepared cells were placed on a centrifuge on the Qpatch bench, the cells were washed using multiple centrifugation/suspension methods, and the cell culture medium was replaced with extracellular fluid. Remove an MTP-96 plate and place it in the location of the MTP source. Remove the QPlate chip and subsequently place the QPlate at the Qplate source location. The robotic arm scans the MTP-96 board and the QPlate chip barcode and grabs it to the measuring station. Draw the intracellular and external fluid from the liquid pool and add them to the intracellular fluid pool, cell and test cell pool of the QPlate chip, respectively. At the measuring station, all measuring sites on the QPlate undergo initial quality control. The quality control process includes aspirating the cell suspension from the cell vessel of the centrifuge and positioning the cells to the chip wells via a pressure controller to establish a high-resistance seal and create a whole-cell recording pattern.
The voltage stimulation protocol for whole-cell patch-clamp recording of whole-cell hERG potassium currents is as follows: the cell membrane voltage clamps at −80 mV when a whole-cell closure is formed. The clamping voltage is depolarized from −80 mV to −50 mV for 0.5 s (as a leakage current detection), then steps to 30 mV for 2.5 s, and then quickly recovers to −50 mV for 4 s to excite the tail current of the hERG channel. The data were collected repeatedly every 10 s to observe the effect of the drug on the hERG tail current. −50 mV stimulation at 0.5 s was used as the leakage current detection. The test data is collected by Qpatch and stored in the connected service station.
First, the current after the effect of each drug concentration and the blank control current are normalized 0, and then the inhibition rate corresponding to each drug concentration is calculated.
Calculate the mean and standard error for each concentration and calculate the semi-inhibitory concentration for each compound using the following Formula:
Y=Bottom+(Top−Bottom)/(1+10^((LogIC50−X)*HillSlope)) The above Formula was used to fit the dose-dependent effect nonlinearly, where C represents the test substance concentration, IC50 is the semi-inhibitory concentration, and h represents the Hill coefficient. Curve fitting and IC50 calculations were performed using Graphpad software.

IL-1β = test: Inflammatory factor IL-1β in serum and colon, DSS-induced acute enteritis mouse model; format: in vivo, C57BL/6 mice; settings: 50 mpk, BID
Experimental: Grouping and modeling: One day before the start of the experiment, all C57BL/6 mice were ear-labeled and recorded, and the animals with appropriate weight and normal status were selected for grouping (Sham group, vehicle group and embodiment 33 group). 10 animals per group; 3.5% dextran sulfate sodium salt (DSS, MP, molecular weight 36000-50000) prepared with sterile water is loaded into the drinking bottle in the vehicle and the 33 testing groups of rearing cages in the embodiment (100 mL per cage, replace the 3.5% DSS solution after 2-3 days with freshly prepared solution), and the animals in the vehicle and the 33 testing groups of the embodiment are free to drink for 10 consecutive days. The Sham group drank the normal water not containing DSS. Embodiment 33 compound is administered orally BID.
4) Detection of inflammatory factors: Blood was collected from all animals under their jaws, and serum was separated; serum and colon tissue IL-10 and IL-18 cytokines were detected according to the detection method in the Effect Embodiment 4.

[1] = Safety investigation, oral administration to SD rats for 14 consecutive days; settings: 14 days

T1 sequence (Q96P20 whole entry): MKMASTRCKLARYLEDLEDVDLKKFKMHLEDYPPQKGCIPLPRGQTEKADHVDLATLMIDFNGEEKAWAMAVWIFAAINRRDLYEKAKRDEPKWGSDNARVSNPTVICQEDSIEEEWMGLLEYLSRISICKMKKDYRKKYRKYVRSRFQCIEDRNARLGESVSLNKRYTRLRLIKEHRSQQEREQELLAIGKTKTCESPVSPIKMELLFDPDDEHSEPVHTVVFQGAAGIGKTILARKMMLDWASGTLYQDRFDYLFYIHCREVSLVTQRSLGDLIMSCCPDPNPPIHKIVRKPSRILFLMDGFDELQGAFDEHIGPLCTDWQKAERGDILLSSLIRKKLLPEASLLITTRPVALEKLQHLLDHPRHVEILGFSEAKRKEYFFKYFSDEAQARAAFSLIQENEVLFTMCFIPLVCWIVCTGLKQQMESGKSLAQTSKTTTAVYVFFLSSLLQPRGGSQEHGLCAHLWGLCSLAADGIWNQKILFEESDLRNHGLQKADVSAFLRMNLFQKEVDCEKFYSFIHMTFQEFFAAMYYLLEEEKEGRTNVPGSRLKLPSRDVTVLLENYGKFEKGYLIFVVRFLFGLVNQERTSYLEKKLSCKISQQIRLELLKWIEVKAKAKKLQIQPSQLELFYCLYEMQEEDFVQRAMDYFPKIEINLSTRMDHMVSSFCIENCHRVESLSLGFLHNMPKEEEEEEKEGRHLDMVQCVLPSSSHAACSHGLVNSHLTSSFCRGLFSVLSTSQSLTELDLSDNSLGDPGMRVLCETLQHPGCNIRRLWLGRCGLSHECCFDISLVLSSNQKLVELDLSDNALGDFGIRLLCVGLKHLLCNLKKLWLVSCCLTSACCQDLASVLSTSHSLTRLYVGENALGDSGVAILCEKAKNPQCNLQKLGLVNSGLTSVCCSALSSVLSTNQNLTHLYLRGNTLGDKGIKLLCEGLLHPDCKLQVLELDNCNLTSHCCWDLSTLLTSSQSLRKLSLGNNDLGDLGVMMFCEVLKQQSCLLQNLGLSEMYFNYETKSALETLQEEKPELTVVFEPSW

Cc1nc(N[C@@H]2CCCC[C@H]2O)nnc1-c1ccc(C(F)(F)F)cc1O [Embodiment 33]
IC50 (NLRP3): 5.8 nM
IC50 (hERG potassium channel): > 30000 nM
IL-1β in serum (IL-1β): 290.3 ± 30.65
IL-1β in the colon (IL-1β): 6.018 ± 0.9675
dose without any toxic effects [1]: ≤ 2000 mg/kg
